Assay results as given in US20240246902A1, “PRODRUGS OF 6-DIAZO-5-OXO-L-NORLEUCINE” (THE JOHNS HOPKINS UNIVERSITY, priority 2021, published 2024).
In brackets after ≈: the same amount, converted by molar mass. Read-outs that look alike come from different tables or passages of the source.

Experiments:
[1] = Metabolic stability in swine liver tissue homogenate; assay type: in vitro ADME; details: prodrug 20 μM, 37° C.
Experimental: (§1) The representative Compounds of the Disclosure were screened for metabolic stability in swine jejunum/liver tissue homogenates, following our previously reported methods (Zimmermann et al., J. Med. Chem., 61(9):3918-29 (2018); Tenora et al., J. Med. Chem., 62(7):3524-38 (2019)). In brief, freshly collected tissues were homogenized by probe sonication in 9× volume of 0.1 M potassium phosphate buffer over ice. Post homogenization, prodrugs were spiked at a concentration of 20 μM (in triplicate) and incubated in an orbital shaker at 37° C. for 60 min. Final concentration of DMSO in the incubations was 0.2% v/v. At each time point (0, 30, 60 min), 100 μL of sample was precipitated with 300 μL of methanol containing internal standard (IS; losartan: 0.5 μM). […] After centrifugation, 50 μL of supernatant was diluted with 50 μL of water, vortexed and submitted for analysis. Prodrug disappearance over time was measured using liquid chromatography tandem mass spectrometry (LC-MS/MS).
(§2) The processed supernatants were analyzed on a Thermo Scientific Vanquish UPLC system (equipped with Vanquish autosampler, pumps, and column compartment) hyphenated to TSQ Altis mass spectrometer (Thermo Fisher Scientific Inc., Waltham MA). […] The autosampler was operated at 4° C. […] Peak area ratios obtained from peak area counts of analyte and internal standard were used to measure the disappearance of prodrugs.

[2] = Solubility
[3] = Metabolic stability in swine jejunum (gut) tissue homogenate; assay type: in vitro ADME; details: prodrug 20 μM, 37° C.
Experimental: as §1, §2

[4] = Efflux
[5] = Plasma stability, plasma from CES1KO mice; details: CES1KO = Mouse Plasma from CES1KO mice
[6] = Plasma stability, mouse plasma; details: MP = Mouse Plasma
[7] = not told
[8] = Plasma stability, human plasma; assay type: in vitro ADME; details: HP = Human Plasma

Structure (SMILES) | Liver stability (% remaining at 60 min) [1] [%] | Gut Stability (% remaining at 60 min) [3] [%] | Efflux [4] | further results
CCCC(=O)N[C@@H](CCC(=O)C=[N+]=[N-])C(=O)OC(C)C [Compound 5b, Isopropyl (S)-2-butyramido-6-diazo-5-oxohexanoate] | 12 ± 1 |  |  | solubility [2]: ~5000 µg/mL (≈ 17.6 mM)
CCCCCC(=O)N[C@@H](CCC(=O)C=[N+]=[N-])C(=O)OC(C)C [Compound 5c, Isopropyl (S)-6-diazo-2-hexanamido-5-oxohexanoate] | 0 ± 0 |  |  | solubility [2]: ~2000 µg/mL (≈ 6.42 mM)
CC(C)OC(=O)[C@H](CCC(=O)C=[N+]=[N-])NC(=O)c1cccnc1 [Compound 5f, Isopropyl (S)-6-diazo-2-(nicotinamido)-5-oxohexanoate] | 0 ± 0 |  |  | solubility [2]: ~5000 µg/mL (≈ 15.7 mM)
CC(C)(C)OC(=O)[C@H](CCC(=O)C=[N+]=[N-])NC(=O)c1cccnc1 [Compound 5j, tert-Butyl (S)-6-diazo-2-(nicotinamido)-5-oxohexanoate] | 78 ± 1 | 104 ± 0 |  | solubility [2]: ~4000 µg/mL (≈ 12 mM)
CC(C)OC(=O)[C@H](CCC(=O)C=[N+]=[N-])NC(=O)[C@H](Cc1c[nH]c2ccccc12)NC(=O)C(Cl)Cl [Compound 8n, Isopropyl (S)-6-diazo-2-((S)-2-(2,2-dichloroacetamido)-3-(1H-indol-3-yl)propanamido)-5-oxohexanoate] | 0 ± 0 |  | 49 | Plasma Stability (% remaining at 60 min) [5]: 69 ± 3 (ces1KO) %
CC(=O)N[C@@H](Cc1c[nH]c2ccccc12)C(=O)N[C@@H](CCC(=O)C=[N+]=[N-])C(=O)OC(C)(C)C [Compound 11a, tert-Butyl (S)-2-((S)-2-acetamido-3-(1H-indol-3-yl)propanamido)-6-diazo-5-oxohexanoate] | 95 ± 3 | 88 ± 4 | 41 | Plasma Stability (% remaining at 60 min) [6]: 62 ± 1 (MP) %
Cn1cc(C[C@H](NC(=O)C2CN3CCC2CC3)C(=O)N[C@@H](CCC(=O)C=[N+]=[N-])C(=O)OC(C)(C)C)c2ccccc21 (stereo partly drawn) [Compound 12c, tert-Butyl (2S)-6-diazo-2-((2S)-3-(1-methyl-1H-indol-3-yl)-2-(quinuclidine-3-carboxamido)propanamido)-5-oxohexanoate] |  |  |  | Efflux [7]: 5.37
Cn1cc(C[C@H](NC(=O)OC2CN3CCC2CC3)C(=O)N[C@@H](CCC(=O)C=[N+]=[N-])C(=O)OC(C)(C)C)c2ccccc21 (stereo partly drawn) [Compound 12d, tert-Butyl (2S)-6-diazo-2-((2S)-3-(1-methyl-1H-indol-3-yl)-2-(((quinuclidin-3-yloxy)carbonyl)amino)propanamido)-5-oxohexanoate] | 89 ± 1 |  |  | Efflux ([4]; not told): 65.59; Plasma Stability (% remaining at 60 min) [6]: 10 ± 2 (MP) %; Plasma Stability (% remaining at 60 min) [5]: 88 ± 2 (Ces1KO) %
Cn1cc(C[C@H](NC(=O)CCCNC(=O)C23CCN(CC2)CC3)C(=O)N[C@@H](CCC(=O)C=[N+]=[N-])C(=O)OC(C)(C)C)c2ccccc21 [Compound 12g, tert-Butyl (S)-6-diazo-2-((S)-3-(1-methyl-1H-indol-3-yl)-2-(4-(quinuclidine-4-carboxamido)butanamido)propanamido)-5-oxohexanoate] |  |  |  | Efflux [7]: 1
CC(C)(C)OC(=O)[C@H](CCC(=O)C=[N+]=[N-])NC(=O)CNC(=O)C12CCN(CC1)CC2 [Compound 14d, tert-Butyl (S)-6-diazo-5-oxo-2-(2-(quinuclidine-4-carboxamido)acetamido)hexanoate] |  |  |  | Efflux [7]: 1.48
CN(C)CC(=O)N[C@@H](Cc1ccccc1)C(=O)N[C@@H](CCC(=O)C=[N+]=[N-])C(=O)OC(C)(C)C [Compound 15a, tert-Butyl (S)-6-diazo-2-((S)-2-(2-(dimethylamino)acetamido)-3-phenylpropanamido)-5-oxohexanoate] | 81 ± 2 | 90 ± 1 | 48 | Plasma Stability (% remaining at 60 min) [6]: 67 ± 1 (MP) %; Plasma Stability (% remaining at 60 min) [5]: 93 ± 1 (ces1KO MP) %
CC(C)(C)OC(=O)[C@H](CCC(=O)C=[N+]=[N-])NC(=O)[C@H](Cc1ccccc1)NC(=O)C12CCN(CC1)CC2 [Compound 15b, tert-Butyl (S)-6-diazo-5-oxo-2-((S)-3-phenyl-2-(quinuclidine-4-carboxamido)propanamido)hexanoate] |  |  |  | Efflux [7]: 7.31
CC(C)C[C@H](NC(=O)CN(C)C)C(=O)N[C@@H](CCC(=O)C=[N+]=[N-])C(=O)OC(C)(C)C [Compound 16a, tert-Butyl (S)-6-diazo-2-((S)-2-(2-(dimethylamino)acetamido)-4-methylpentanamido)-5-oxohexanoate] | 87 ± 0 | 87 ± 1 | 45 | 
CN(C)CC(=O)N[C@H](C(=O)N[C@@H](CCC(=O)C=[N+]=[N-])C(=O)OC(C)(C)C)c1ccccc1 [Compound 19a, tert-Butyl (S)-6-diazo-2-((S)-2-(2-(dimethylamino)acetamido)-2-phenylacetamido)-5-oxohexanoate] | 82 ± 0 |  |  | Efflux [7]: 24.37
CN(C)CC(=O)N[C@@H](CCc1ccccc1)C(=O)N[C@@H](CCC(=O)C=[N+]=[N-])C(=O)OC(C)(C)C [Compound 20a, tert-Butyl (S)-6-diazo-2-((S)-2-(2-(dimethylamino)acetamido)-4-phenylbutanamido)-5-oxohexanoate] | 69 ± 1 |  | 61.35 | Plasma Stability (% remaining at 60 min) [6]: 60 ± 7 (MP) %; Plasma Stability (% remaining at 60 min) [5]: 102 ± 2 (ces1KO) %
CN(C)CC(=O)N[C@@H](Cc1ccc(C(F)(F)F)cc1)C(=O)N[C@@H](CCC(=O)C=[N+]=[N-])C(=O)OC(C)(C)C [Compound 23a, tert-Butyl (S)-6-diazo-2-((S)-2-(2-(dimethylamino)acetamido)-3-(4-(trifluoromethyl)phenyl)propanamido)-5-oxohexanoate] | 72 ± 0 |  | 32.76 | Plasma Stability (% remaining at 60 min) [6]: 79 ± 2 (MP) %; Plasma Stability (% remaining at 60 min) [5]: 70 ± 14 (Ces1KO) %
CN(C)CC(=O)NCCC(=O)N[C@@H](CCC(=O)C=[N+]=[N-])C(=O)OC(C)(C)C [Compound 25a, tert-Butyl (S)-6-diazo-2-(3-(2-(dimethylamino)acetamido)propanamido)-5-oxohexanoate] | 99 ± 1 | 92 ± 4 | 16 | 
COCCOCCOC(=O)[C@H](CCC(=O)C=[N+]=[N-])NC(=O)[C@H](Cc1c[nH]c2ccccc12)NC(=O)CN(C)C [Compound 30b, 2-(2-Methoxyethoxy)ethyl (S)-6-diazo-2-((S)-2-(2-(dimethylamino)acetamido)-3-(1H-indol-3-yl)propanamido)-5-oxohexanoate] |  |  |  | Plasma Stability (% remaining at 60 min) [8]: 42 ± 1 (HP) %
CNC(=O)[C@H](CCC(=O)C=[N+]=[N-])NC(=O)[C@H](Cc1c[nH]c2ccccc12)NC(C)=O [Compound 31b, (S)-2-((S)-2-Acetamido-3-(1H-indol-3-yl)propanamido)-6-diazo-N-methyl-5-oxohexanamide] | 103 ± 4 | 90 ± 2 | 1 | 
